Where a name gives a salt, the structure may show the parent alone.

T1 sequence (O60760 whole entry): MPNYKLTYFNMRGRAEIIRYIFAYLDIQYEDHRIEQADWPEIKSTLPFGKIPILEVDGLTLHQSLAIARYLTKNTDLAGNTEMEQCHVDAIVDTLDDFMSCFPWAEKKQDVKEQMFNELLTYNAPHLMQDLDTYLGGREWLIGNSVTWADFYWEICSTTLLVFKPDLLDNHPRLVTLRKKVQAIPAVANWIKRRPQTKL

The assay concerns the target T1, haematopoietic prostaglandin D synthase (H-PGDS) (Homo sapiens, UniProt O60760).
T1 construct: Full length human H-PGDS cDNA (Invitrogen Ultimate ORF 10H13026) was amplified by PCR; 6-His (N); TEV protease cleavage site (N); made in house; host or cells: E. coli BL21 (DE3*), vector pET22b+
The assay can be described thus: H-PGDS RapidFire high throughput mass spectrometry assay (conversion of PGH2 to PGD2). Type of assay: biochemical. To be noted: 10 nM H-PGDS, PGH2 formed in situ by COX-2 from arachidonic acid; read-out: Potency Range (mean pIC50) (converted). The gist of the method:
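PGH2 substrate generated in situ by COX-2 (full-length human, FLAG-tagged, Sf9-expressed) from arachidonic acid at ˜10 μM, then converted by full-length human His-tagged H-PGDS (E. coli-expressed). RapidFire SPE–triple quadrupole MS measured PGD2 against PGF2α as substrate surrogate to give percent conversion.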
For the molecule `CC(C)c1nnc(NC(=O)N2CC(Oc3cccc4scnc34)C2)s1` [Example 334, 3-(Benzo[d]thiazol-4-yloxy)-N-(5-isopropyl-1,3,4-thiadiazol-2-yl)azetidine-1-carboxamide], the IC50 was 10 to 79.4 nM.

On to `O=C(NCc1ccsc1)[C@H]1C[C@H](Oc2cccc3scnc23)C1` [Example 252], for which the IC50 was 100 to 1000 nM.

Regarding `O=C(NC1CN(c2ncc(F)cn2)C1)N1CC(Oc2cc(F)cc3scnc23)C1` [Example 135, 3-((6-Fluorobenzo[d]thiazol-4-yl)oxy)-N-(1-(5-fluoropyrimidin-2-yl)azetidin-3-yl)azetidine-1-carboxamide], the IC50 was 10 to 79.4 nM.

Take `Cc1ccc(N2CC(NC(=O)N3CC(Oc4cccc5scnc45)C3)C2)nc1` [Example 244]: the IC50 was 10 to 79.4 nM.

For the molecule `O=C(NC1CN(c2ccccn2)C1)N1CC(Oc2cccc3scnc23)C1` [Example 54, 3-(Benzo[d]thiazol-4-yloxy)-N-(1-(pyridin-2-yl)azetidin-3-yl)azetidine-1-carboxamide], the IC50 was 10 to 79.4 nM.

Turning to `CC(C)(O)[C@H]1CC[C@H](NC(=O)[C@H]2C[C@H](Oc3cccc(Cl)c3)C2)CC1` [Example 288, (trans)-3-(3-Chlorophenoxy)-N-((trans)-4-(2-hydroxypropan-2-yl)cyclohexyl)cyclobutanecarboxamide], the IC50 was 100 to 1000 nM.

For `CC(C)(O)[C@H]1CC[C@H](NC(=O)N2CC(Oc3csc4cccnc34)C2)CC1` [Example 226, N-((trans)-4-(2-Hydroxypropan-2-yl)cyclohexyl)-3-(thieno[3,2-b]pyridin-3-yloxy)azetidine-1-carboxamide], the IC50 was 10 to 79.4 nM.

As to `O=C(NC1CCc2ccccc21)[C@H]1C[C@H](Oc2cccc(Cl)c2)C1` (mixture of isomers) [Example 286, Racemic (trans)-3-(3-Chlorophenoxy)-N-(2,3-dihydro-1H-inden-1-yl)cyclobutanecarboxamide], the IC50 is 10 to 79.4 nM.

`CC1C(Oc2cccc3scnc23)CN1C(=O)N[C@H]1CC[C@H](C(C)(C)O)CC1` (mixture of isomers) [Example 240, Racemic 3-(Benzo[d]thiazol-4-yloxy)-N-((trans)-4-(2-hydroxypropan-2-yl)cyclohexyl)-2-methylazetidine-1-carboxamide]: the IC50 is 10 to 79.4 nM.

Take `CC(C)(O)[C@H]1CC[C@H](NC(=O)N2CC(Oc3cccc4ccoc34)C2)CC1` [Example 260, 3-(Benzofuran-7-yloxy)-N-((trans)-4-(2-hydroxypropan-2-yl)cyclohexyl)azetidine-1-carboxamide]: the IC50 was 10 to 79.4 nM.

On to `N#Cc1ccnc(N2CC(NC(=O)N3CC(Oc4cc(F)cc5scnc45)C3)C2)c1` [Example 134], for which the IC50 is 10 to 79.4 nM.

Take `CC(=O)c1csc(NC(=O)[C@H]2C[C@H](Oc3cc(F)ccc3OC(F)F)C2)n1` [Example 35, (trans)-N-(4-Acetylthiazol-2-yl)-3-(2-(difluoromethoxy)-5-fluorophenoxy)cyclobutanecarboxamide]: the IC50 is < 10 nM.

`CC(C)(O)C12C3C4C1C1C2C3C41NC(=O)N1CC(Oc2cccc3scnc23)C1` (centres unmarked) [Example 317, 3-(Benzo[d]thiazol-4-yloxy)-N-(4-(2-hydroxypropan-2-yl)cuban-1-yl)azetidine-1-carboxamide]: the IC50 is 10 to 79.4 nM.

Regarding `O=C(N[C@H]1CC[C@H](OCC(O)C2CC2)CC1)[C@H]1C[C@H](Oc2cc(F)ccc2OC(F)F)C1` (mixture of isomers) [Example 9, Racemic (trans)-N-((trans)-4-(2-Cyclopropyl-2-hydroxyethoxy)cyclohexyl)-3-(2-(difluoromethoxy)-5-fluorophenoxy)cyclobutanecarboxamide], the IC50 is 10 to 79.4 nM.

For the molecule `NC(=O)c1csc(NC(=O)[C@H]2C[C@H](Oc3cccc4cccnc34)C2)n1` [Example 189, 2-((trans)-3-(Quinolin-8-yloxy)cyclobutanecarboxamido)thiazole-4-carboxamide, trifluoroacetic acid salt], the IC50 is 10 to 79.4 nM.

Take `CC(N[C@H]1CC[C@H](NC(=O)[C@H]2C[C@H](Oc3cccc4scnc34)C2)CC1)C(F)F` (mixture of isomers) [Example 46, Racemic (trans)-3-(Benzo[d]thiazol-4-yloxy)-N-((trans)-4-((1,1-difluoropropan-2-yl)amino)cyclohexyl)cyclobutanecarboxamide]: the IC50 was 10 to 79.4 nM.

Take `CC(C)c1nsc(NC(=O)N2CC(Oc3cccc4scnc34)C2)n1` [Example 337, 3-(Benzo[d]thiazol-4-yloxy)-N-(3-isopropyl-1,2,4-thiadiazol-5-yl)azetidine-1-carboxamide]: the IC50 was < 10 nM.

In the case of `CCOC(=O)c1cnc(N2CC(NC(=O)[C@H]3C[C@H](Oc4cccc5scnc45)C3)C2)o1` [Example 48, Ethyl 2-(3-((trans)-3-(benzo[d]thiazol-4-yloxy)cyclobutanecarboxamido)azetidin-1-yl)oxazole-5-carboxylate], the IC50 was 100 to 1000 nM.

Regarding `Cc1ccc(N2CC(NC(=O)[C@H]3C[C@H](Oc4cccc5scnc45)C3)C2)nc1` [Example 239, (trans)-3-(Benzo[d]thiazol-4-yloxy)-N-(1-(5-methylpyridin-2-yl)azetidin-3-yl)cyclobutanecarboxamide], the IC50 is 10 to 79.4 nM.

As for `O=C(Nc1ncco1)[C@H]1C[C@H](Oc2cccc3cccnc23)C1` [Example 208, (trans)-N-(Oxazol-2-yl)-3-(quinolin-8-yloxy)cyclobutanecarboxamide], the IC50 was 100 to 1000 nM.

Regarding `O=C(NC1CCN(c2ccccn2)C1)[C@H]1C[C@H](Oc2cccc3scnc23)C1` (mixture of isomers) [Example 82, Racemic (trans)-3-(Benzo[d]thiazol-4-yloxy)-N-(1-(pyridin-2-yl)pyrrolidin-3-yl)cyclobutanecarboxamide], the IC50 is 10 to 79.4 nM.

For `O=C(NC1CN(c2ncccn2)C1)[C@H]1C[C@H](Oc2cc(F)cc3scnc23)C1` [Example 133, (trans)-3-((6-Fluorobenzo[d]thiazol-4-yl)oxy)-N-(1-(pyrimidin-2-yl)azetidin-3-yl)cyclobutanecarboxamide], the IC50 was 10 to 79.4 nM.

For the molecule `O=C(Nc1ccn[nH]1)[C@H]1C[C@H](Oc2cccc3scnc23)C1` [Example 301], the IC50 was 100 to 1000 nM.

In the case of `CC(C)c1nnc(NC(=O)[C@H]2C[C@H](Oc3cccc4cccnc34)C2)s1` [Example 198], the IC50 was 10 to 79.4 nM.

In the case of `O=C(NC1CCN(CC(F)(F)F)CC1)N1CC(Oc2cccc3scnc23)C1` [Example 91, 3-(Benzo[d]thiazol-4-yloxy)-N-(1-(2,2,2-trifluoroethyl)piperidin-4-yl)azetidine-1-carboxamide], the IC50 is 10 to 79.4 nM.

`O=C(NC1CN(c2ccnc(Cl)n2)C1)[C@H]1C[C@H](Oc2cccc3scnc23)C1` [Example 69, (trans)-3-(Benzo[d]thiazol-4-yloxy)-N-(1-(2-chloropyrimidin-4-yl)azetidin-3-yl)cyclobutanecarboxamide]: the IC50 was 10 to 79.4 nM.

Take `O=C(N[C@H]1CC[C@H](NC(CO)C(F)(F)F)CC1)[C@H]1C[C@H](Oc2cc(F)cc3scnc23)C1` (mixture of isomers) [Example 126, Racemic (trans)-3-((6-Fluorobenzo[d]thiazol-4-yl)oxy)-N-((trans)-4-((1,1,1-trifluoro-3-hydroxypropan-2-yl)amino)cyclohexyl)cyclobutanecarboxamide]: the IC50 was 10 to 79.4 nM.

In the case of `CC(C)(O)[C@H]1CC[C@H](NC(=O)N2CC(Oc3cccc4sncc34)C2)CC1` [Example 299, 3-(Benzo[d]isothiazol-4-yloxy)-N-((trans)-4-(2-hydroxypropan-2-yl)cyclohexyl)azetidine-1-carboxamide], the IC50 is 100 to 1000 nM.

As to `Cc1nccc(N2CC(NC(=O)N3CC(Oc4cc(F)cc5scnc45)C3)C2)n1` [Example 122, 3-((6-Fluorobenzo[d]thiazol-4-yl)oxy)-N-(1-(2-methylpyrimidin-4-yl)azetidin-3-yl)azetidine-1-carboxamide], the IC50 is 10 to 79.4 nM.

Regarding `N#Cc1ccnc(N2CC(NC(=O)N3CC(Oc4cccc5scnc45)C3)C2)c1` [Example 52, 3-(Benzo[d]thiazol-4-yloxy)-N-(1-(4-cyanopyridin-2-yl)azetidin-3-yl)azetidine-1-carboxamide], the IC50 was 10 to 79.4 nM.

Regarding `O=C(NC1CN(c2cnccn2)C1)[C@H]1C[C@H](Oc2cccc3scnc23)C1` [Example 246, (trans)-3-(Benzo[d]thiazol-4-yloxy)-N-(1-(pyrazin-2-yl)azetidin-3-yl)cyclobutanecarboxamide], the IC50 is 10 to 79.4 nM.

In the case of `O=C(NC1CN(c2ncc(CO)cn2)C1)[C@H]1C[C@H](Oc2cc(F)cc3scnc23)C1` [Example 114, (trans)-3-((6-Fluorobenzo[d]thiazol-4-yl)oxy)-N-(1-(5-(hydroxymethyl)pyrimidin-2-yl)azetidin-3-yl)cyclobutanecarboxamide], the IC50 was 10 to 79.4 nM.

Turning to `O=C(Nc1ccc(N2CCOCC2)cc1)[C@H]1C[C@H](Oc2cccc3scnc23)C1` [Example 243, (trans)-3-(Benzo[d]thiazol-4-yloxy)-N-(4-morpholinophenyl)cyclobutanecarboxamide], the IC50 is 10 to 79.4 nM.

Consider `Cc1ccc(N2CC(NC(=O)[C@H]3C[C@H](Oc4cc(F)cc5scnc45)C3)C2)nc1` [Example 231, (trans)-3-((6-Fluorobenzo[d]thiazol-4-yl)oxy)-N-(1-(5-methylpyridin-2-yl)azetidin-3-yl)cyclobutanecarboxamide], for which the IC50 is 10 to 79.4 nM.

As for `O=C(NC1CN(c2nccc(Cl)n2)C1)[C@H]1C[C@H](Oc2cc(F)ccc2OC(F)F)C1` [Example 7, (trans)-N-(1-(4-Chloropyrimidin-2-yl)azetidin-3-yl)-3-(2-(difluoromethoxy)-5-fluorophenoxy)cyclobutanecarboxamide], the IC50 was < 10 nM.
